# Test system: patients with early idiopathic Parkinson's disease treated with levodopa/DDCI, with no signs of motor complications
# Assay: EPSILON Phase III double-blind placebo-controlled study, efficacy
# Assay type: in vivo, human
# Source text: The primary endpoint was the change from baseline to end of double-blind period in MDS-UPDRS Part III (motor) scores, and secondary outcomes assessed non-motor symptoms, quality of life and global clinical impressions of change.
# Subjects were between 30 and 80 years of age, inclusive, diagnosed with early idiopathic Parkinson's disease according to the United Kingdom Parkinson's Disease Society Brain Bank Clinical Diagnostic Criteria within the previous 5 years, with disease severity stage 1-2.5 (according to modified Hoehn & Yahr staging) and a MDS-UPDRS Part III score>20. Alternatively, the subjects were diagnosed with early idiopathic Parkinson's disease according to the […] within the previous 5 years, with disease severity stage 1-2.5 (according to modified Hoehn & Yahr staging) and a MDS-UPDRS Part III score>20.
# 322 subjects completed the double-blind phase (FIG. 10).
# Study treatment was administered in combination with the subject's existing treatment of levodopa/DDCI.
# The primary efficacy parameter, change from baseline (Visit 2) in MDS-UPDRS Part III total score at the end of the double-blind period (Visit 9), was analyzed using a Mixed Model Repeated Measures (MMRM) approach with fixed effects for baseline, center/country, (randomized) treatment, visit, treatment by visit interaction and baseline by visit interaction, and subject as a random effect. Difference between treatment groups (opicapone versus placebo) was estimated from the model.
# A similar MMRM analysis used for the primary endpoint was used for relevant secondary efficacy endpoints in the double-blind period. The secondary endpoints included: • Change from baseline (Visit 2) to post-baseline visits during the double-blind trial in: • MDS-UPDRS scores: Parts I, II, III and IV, and Part II+III total • Modified Hoehn & Yahr staging total score during maximum ‘ON’ response • Schwab and England scale score • Parkinson's Disease Sleep Scale 2 (PDSS-2) total score • MDS-Non-motor Symptom Scale (MDS-NMSS) total and subdomain scores • Parkinson's Disease Questionnaire (PDQ-39) total and subdomain scores • 9-item Wearing-off questionnaire (WOQ9) total and sub-section (motor and non-motor) scores • Clinical Global Impression of Improvement (CGI-I) • Patient's Global Impression of Improvement (PGI-I)
# The proportion of subjects with an improvement from baseline in CGI-I (preferably relative to before the beginning of treatment) and PGI-I (preferably relative to their admission to the study) scores at the end of the double blind period (Visit 9) endpoint was analysed using logistic regression, with (randomized) treatment included in the model.
smiles,measurement,setting,value
"Cc1c(Cl)c(C)[n+]([O-])c(Cl)c1-c1noc(-c2cc(O)c(O)c([N+](=O)[O-])c2)n1 [opicapone, 2,5-dichloro-3-[5-(3,4-dihydroxy-5-nitrophenyl)-1,2,4-oxadiazol-3-yl]-4,6-dimethylpyridine 1-oxide]","MDS-UPDRS Part III total score, change from baseline, LS mean, estimates from MMRM","OPC 50 mg once daily + L-DOPA/DDCI, Week 24",−6.5
same,"MDS-UPDRS Part III total score, Change from Baseline, Mean","OPC 50 mg once daily + L-DOPA/DDCI, baseline to 24 weeks",−5.8
same,"MDS-UPDRS Part III total score, Week 24, Mean","OPC 50 mg once daily + L-DOPA/DDCI, double-blind, Week 24, N = 176",27.2
same,"MDS-UPDRS Part III total score, LS Mean Diff. (SE) vs placebo, MMRM","OPC 50 mg vs placebo, Week 2",−0.8 (0.8)
same,"MDS-UPDRS Part II + III total score, LS Mean Diff. (SE) vs placebo","OPC 50 mg vs placebo, Week 4",−1.4 (0.9)
same,"MDS-UPDRS Part II total score, LS Mean Diff. (SE) vs placebo","OPC 50 mg vs placebo, Week 4",−0.2 (0.3)
same,"MDS-UPDRS Part III total score, LS Mean Diff. (SE) vs placebo, MMRM","OPC 50 mg vs placebo, Week 4",−1.2 (0.8)
same,"MDS-UPDRS Part II + III total score, LS Mean Diff. (SE) vs placebo","OPC 50 mg vs placebo, Week 12",−1.7 (1.06)
same,"MDS-UPDRS Part II total score, LS Mean Diff. (SE) vs placebo","OPC 50 mg vs placebo, Week 12",−0.2 (0.4)
same,"MDS-UPDRS Part III total score, LS Mean Diff. (SE) vs placebo, MMRM","OPC 50 mg vs placebo, Week 12",−1.7 (0.9)
same,"MDS-UPDRS Part I total score, LS Mean Diff. (SE) vs placebo","OPC 50 mg vs placebo, Week 24",−0.2 (0.4)
same,"MDS-UPDRS Part II + III total score, LS Mean Diff. (SE) vs placebo","OPC 50 mg vs placebo, Week 24",−2.8 (1.3)
same,"MDS-UPDRS Part II total score, LS Mean Diff. (SE) vs placebo","OPC 50 mg vs placebo, Week 24",−0.7 (0.4)
same,"MDS-UPDRS Part III total score, LS Mean Diff. (SE) vs placebo, MMRM","OPC 50 mg vs placebo, Week 24",−2.2 (0.9)
same,"MDS-UPDRS Part IV total score, LS Mean Diff. (SE) vs placebo","OPC 50 mg vs placebo, Week 24",−0.11 (0.1)
same,"PDQ-39 total score, LS Mean Diff. (SE) vs placebo","OPC 50 mg vs placebo, Week 24",−0.26 (0.77)
same,"PDSS-2 total score, LS Mean Diff. (SE) vs placebo","OPC 50 mg vs placebo, Week 24",−1.5 (0.7)
same,"MDS-UPDRS Part III total score, Change to Week 2, LS mean","OPC 50 mg, Week 2",−4.6
same,"MDS-UPDRS Part II + III total score, Change to Week 4, LS mean","OPC 50 mg, Week 4",−7.3
same,"MDS-UPDRS Part II total score, Change to Week 4, LS mean","OPC 50 mg, Week 4",−0.8
same,"MDS-UPDRS Part III total score, Change to Week 4, LS mean","OPC 50 mg, Week 4",−6.0
same,"MDS-UPDRS Part II + III total score, Change to Week 12, LS mean","OPC 50 mg, Week 12",−7.4
same,"MDS-UPDRS Part II total score, Change to Week 12, LS mean","OPC 50 mg, Week 12",−0.7
same,"MDS-UPDRS Part III total score, Change to Week 12, LS mean","OPC 50 mg, Week 12",−6.2
same,"MDS-UPDRS Part I total score, change from baseline, LS mean, MMRM","OPC 50 mg, Week 24",0.4
same,"MDS-UPDRS Part II + III total score, change from baseline, LS mean, MMRM","OPC 50 mg, Week 24",−7.4
same,"MDS-UPDRS Part II total score, change from baseline, LS mean, MMRM","OPC 50 mg, Week 24",−0.4
same,"MDS-UPDRS Part IV total score, change from baseline, LS mean (SE), MMRM","OPC 50 mg, Week 24",0.3 (0.1)
same,"NMSS, change from baseline, LS mean, MMRM","OPC 50 mg, Week 24",−1.4
same,"PDQ-39 total score, change from baseline, LS mean, MMRM","OPC 50 mg, Week 24",0.42
same,"PDSS-2 total score, change from baseline, LS mean, MMRM","OPC 50 mg, Week 24",0.0
same,"MDS-UPDRS Part I total score, Week 24, Mean","OPC 50 mg, Week 24, N = 176",6.7
same,"MDS-UPDRS Part II + III total score, Week 24, Mean","OPC 50 mg, Week 24, N = 176",35.7
same,"MDS-UPDRS Part II total score, Week 24, Mean","OPC 50 mg, Week 24, N = 176",8.5
same,"MDS-UPDRS Part IV total score, Week 24, Mean (SD)","OPC 50 mg, Week 24, N = 176",0.2 (0.8)
same,"NMSS, Week 24, Mean","OPC 50 mg, Week 24, N = 176",15.9
same,"PDQ-39 total score, Week 24, Mean","OPC 50 mg, Week 24, N = 176",15.4
same,"PDSS-2 total score, Week 24, Mean","OPC 50 mg, Week 24, N = 176",11.6
same,"MDS-UPDRS Part I total score, Change from Baseline, Mean","OPC 50 mg, baseline to week 24",0.3
same,"MDS-UPDRS Part II + III total score, Change from Baseline, Mean","OPC 50 mg, baseline to week 24",−6.2
same,"MDS-UPDRS Part II total score, Change from Baseline, Mean","OPC 50 mg, baseline to week 24",−0.4
same,"MDS-UPDRS Part IV total score, Change from Baseline, Mean (SD)","OPC 50 mg, baseline to week 24",0.2 (0.8)
same,"NMSS, Change from Baseline, Mean","OPC 50 mg, baseline to week 24",−3.0
same,"PDQ-39 total score, Change from Baseline, Mean","OPC 50 mg, baseline to week 24",−0.29
same,"PDSS-2 total score, Change from Baseline, Mean","OPC 50 mg, baseline to week 24",−0.4
same,symptomatic reduction in MDS-UPDRS Part III total score compared to placebo,"baseline to end of double-blind period, p=0.010",2.2 points
same,symptomatic reduction in MDS-UPDRS Part II+III total score compared to placebo,"baseline to end of double-blind period, p=0.036",2.8 points
same,"magnitude of the changes in MDS-UPDRS Part I, MDS-UPDRS Part IV or PDQ-39 total scores","both groups (opicapone and placebo), double-blind period",less than 0.4 points
same,NMSS Domain 7 (urinary) subdomain score vs placebo,especially at Week 12 and Week 24 (p<0.05),Significant improvements
same,proportion of patients who reported motor complications,"opicapone 50 mg, end of 24-week double-blind period",5.5%
same,proportion of patients reporting an improvement in their clinical condition (PGI-I score),"opicapone 50 mg, end of double-blind period, p=0.026 vs placebo",57.9%
same,proportion of patients with an improvement in clinical condition assessed by a clinician (CGI-I score),"opicapone 50 mg, end of double-blind period, p=0.493 vs placebo",50.3%
same,WOQ-9: proportion of subjects whose dexterity improved post-study medication,opicapone treated group,56.6%
same,WOQ-9: proportion of subjects whose muscle cramping improved post-study medication,opicapone treated group,28.3%
same,WOQ-9: proportion of subjects whose slowness of movement improved post-study medication,opicapone treated group,66.2%
same,WOQ-9: proportion of subjects whose stiffness improved post-study medication,opicapone treated group,56.9%
same,WOQ-9: proportion of subjects whose tremors improved post-study medication,opicapone treated group,65.5%

# From US20230390267A1, “TREATMENT REGIMENS FOR EARLY IDIOPATHIC PARKINSON'S DISEASE” (BIAL - PORTELA & CA., S.A., priority 2020, published 2023)
